Columns and labels:
Format in all cases: binding
[1] = molecular target: T1, ERK5 (Homo sapiens, UniProt Q13164); assay: Probe-based (AX9989 acyl phosphate ATP probe) kinase profiling in Jurkat lysate: ERK5; conditions: for IC50: Jurkat lysate; for inhibition at 1 µM: screening concentration 1.0 μM
T1 construct: screened for activity against several kinases in Jurkat cells; endogenous in cells; host or cells: Jurkat cell lysate
Protocol: (§1) In this example, potency of the compounds as ERK5 inhibitors was assessed, and the compounds were screened for activity against several kinases in Jurkat cells.
(§2) Jurkat cell pellets were resuspended in four volumes of lysis buffer (50 mM HEPES pH 7.5, 150 mM NaCl, 0.1% Triton-X-100, 1% v/v phosphatase, inhibitor cocktail II [EMD/Calbiochem, #524625]), sonicated using a tip, sonicator, and Dounce homogenized. Lysate was cleared by centrifugation, at 16,000 g for 15 min., was gel filtered (BioRad 10DG) and MnCl2 was then added to a final concentration of 20 mM before treatment with the test compound and probe labeling. […] All compound treatments were performed at room temperature.
(§3) Acyl phosphate ATP probe (AX9989) labeling reactions were performed at room temperature with a final probe concentration of 5 μM after a 15 min pre-incubation of lysate with a test compound. All reactions were performed in duplicate, using 445 μl/sample at 5 mg/ml. Probe-labeled lysates were denatured and reduced (6 M urea, 10 mM DTT, 65° C., 15 min), alkylated (40 mM iodoacetamide, 37° C., 30 min, and gel filtered (Sephadex G25) into 10 mM ammonium bicarbonate, 2 M urea, 5 mM methionine. The desalted protein mixture was digested with trypsin (0.015 mg/ml) for 1 hr at 37° C., and desthiobiotinylated peptides were captured using a […] high-capacity streptavidin resin (Thermo Scientific). Captured peptides were then washed extensively using 150 μl/wash with three different wash buffers: (A) 3 times with 1% triton, 0.5% tergitol, 1 mM EDTA in PBS; (B) 18 times with PBS; and (C) 8 times with HPLC grade water. Peptides were eluted from the streptavidin beads using two 35-μL washes of a 50% CH3CN/water mixture containing 0.1% TFA at room temperature.
(§4) Kinase active site peptides were identified and quantified using LC/MS. Percent inhibition was calculated as the normalized decrease in the ESI-MS fragment intensities of probe-labeled peptides in samples incubated with the test compound compared to those without.
ERK5 IC50 values were calculated from the percent inhibition and the screening concentration.

[2] = molecular target: T2, JAK1 (Homo sapiens, UniProt P23458); assay: Probe-based (AX9989) kinase profiling in Jurkat lysate: JAK1; conditions: for inhibition at 1 µM: screening concentration 1.0 μM
T2 construct: screened for activity against several kinases in Jurkat cells; endogenous in cells; host or cells: Jurkat cell lysate
T2 sequence (P23458 whole entry): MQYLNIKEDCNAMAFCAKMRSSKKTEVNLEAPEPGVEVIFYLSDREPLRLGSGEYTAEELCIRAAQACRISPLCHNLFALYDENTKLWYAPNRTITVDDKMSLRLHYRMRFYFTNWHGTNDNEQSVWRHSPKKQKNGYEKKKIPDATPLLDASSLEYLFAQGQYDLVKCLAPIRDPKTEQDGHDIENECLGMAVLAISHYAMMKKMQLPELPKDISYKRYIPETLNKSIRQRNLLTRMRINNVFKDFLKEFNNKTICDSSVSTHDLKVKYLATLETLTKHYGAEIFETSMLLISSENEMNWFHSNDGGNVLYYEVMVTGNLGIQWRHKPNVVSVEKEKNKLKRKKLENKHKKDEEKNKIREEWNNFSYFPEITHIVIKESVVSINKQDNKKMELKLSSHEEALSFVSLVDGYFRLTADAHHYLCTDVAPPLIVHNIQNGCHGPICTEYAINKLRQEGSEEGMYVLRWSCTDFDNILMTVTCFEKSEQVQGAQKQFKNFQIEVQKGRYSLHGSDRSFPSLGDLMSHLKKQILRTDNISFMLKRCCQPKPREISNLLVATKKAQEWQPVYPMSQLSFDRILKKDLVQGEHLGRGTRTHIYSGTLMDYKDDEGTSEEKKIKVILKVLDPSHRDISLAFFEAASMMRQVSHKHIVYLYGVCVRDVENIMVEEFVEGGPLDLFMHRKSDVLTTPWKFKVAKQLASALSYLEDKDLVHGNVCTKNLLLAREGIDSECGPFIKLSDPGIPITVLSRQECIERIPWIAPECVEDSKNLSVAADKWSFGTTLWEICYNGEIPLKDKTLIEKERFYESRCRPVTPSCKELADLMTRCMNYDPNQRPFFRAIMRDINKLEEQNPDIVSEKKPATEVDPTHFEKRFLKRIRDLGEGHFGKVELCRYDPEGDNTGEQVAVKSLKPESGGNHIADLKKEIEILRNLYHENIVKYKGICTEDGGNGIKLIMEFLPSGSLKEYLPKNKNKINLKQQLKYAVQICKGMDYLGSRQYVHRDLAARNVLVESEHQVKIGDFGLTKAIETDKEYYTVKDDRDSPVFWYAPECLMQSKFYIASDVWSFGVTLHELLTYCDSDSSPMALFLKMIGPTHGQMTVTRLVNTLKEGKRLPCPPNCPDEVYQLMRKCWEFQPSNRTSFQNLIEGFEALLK
Protocol: as §1, §2, §3, §4

[3] = tested on: AMPKa1 or AMPKa2; assay: Probe-based (AX9989) kinase profiling in Jurkat lysate: AMPKa1 or AMPKa2
Protocol: as §1, §2, §3, §4

[4] = molecular target: T3, TAO2 (Homo sapiens, UniProt Q9UL54); assay: Probe-based (AX9989) kinase profiling in Jurkat lysate: TAO2; conditions: for inhibition at 1 µM: screening concentration 1.0 μM
T3 construct: screened for activity against several kinases in Jurkat cells; endogenous in cells; host or cells: Jurkat cell lysate
T3 sequence (Q9UL54 1-1235): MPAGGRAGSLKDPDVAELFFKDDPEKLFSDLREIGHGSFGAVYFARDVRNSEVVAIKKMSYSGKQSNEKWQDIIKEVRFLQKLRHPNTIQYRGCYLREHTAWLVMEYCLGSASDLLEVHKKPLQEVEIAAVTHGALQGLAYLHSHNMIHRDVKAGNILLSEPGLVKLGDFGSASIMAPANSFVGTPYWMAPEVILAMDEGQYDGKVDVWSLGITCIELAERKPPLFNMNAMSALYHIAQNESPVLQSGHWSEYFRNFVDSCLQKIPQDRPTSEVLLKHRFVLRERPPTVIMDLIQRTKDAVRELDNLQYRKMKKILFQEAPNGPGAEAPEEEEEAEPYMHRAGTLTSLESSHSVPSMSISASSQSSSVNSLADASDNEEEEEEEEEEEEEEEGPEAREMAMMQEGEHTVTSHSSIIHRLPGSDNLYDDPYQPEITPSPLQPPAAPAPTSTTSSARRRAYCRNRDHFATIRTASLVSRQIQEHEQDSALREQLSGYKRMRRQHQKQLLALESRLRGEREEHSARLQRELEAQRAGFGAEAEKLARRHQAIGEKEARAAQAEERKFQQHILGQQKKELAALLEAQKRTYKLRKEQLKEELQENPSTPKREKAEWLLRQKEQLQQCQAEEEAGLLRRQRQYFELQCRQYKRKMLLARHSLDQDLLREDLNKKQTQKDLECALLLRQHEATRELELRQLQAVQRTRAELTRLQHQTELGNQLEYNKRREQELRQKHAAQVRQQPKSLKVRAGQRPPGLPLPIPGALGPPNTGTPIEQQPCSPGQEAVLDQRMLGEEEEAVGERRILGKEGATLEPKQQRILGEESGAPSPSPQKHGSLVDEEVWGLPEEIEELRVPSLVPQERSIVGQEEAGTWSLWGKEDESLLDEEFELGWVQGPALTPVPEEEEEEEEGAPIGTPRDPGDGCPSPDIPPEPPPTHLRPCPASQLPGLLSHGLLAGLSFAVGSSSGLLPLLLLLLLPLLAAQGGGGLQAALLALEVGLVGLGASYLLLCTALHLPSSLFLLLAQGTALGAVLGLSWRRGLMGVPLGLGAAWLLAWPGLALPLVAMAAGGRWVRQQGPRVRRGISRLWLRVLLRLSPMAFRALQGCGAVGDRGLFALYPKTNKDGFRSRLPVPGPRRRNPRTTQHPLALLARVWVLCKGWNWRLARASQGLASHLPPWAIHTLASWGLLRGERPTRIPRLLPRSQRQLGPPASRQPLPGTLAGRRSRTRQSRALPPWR
Protocol: as §1, §2, §3, §4

[5] = molecular target: T4, AurA (Homo sapiens, UniProt O14965); assay: Probe-based (AX9989) kinase profiling in Jurkat lysate: AurA; conditions: for inhibition at 1 µM: screening concentration 1.0 μM
T4 construct: screened for activity against several kinases in Jurkat cells; endogenous in cells; host or cells: Jurkat cell lysate
T4 sequence (O14965 1-403): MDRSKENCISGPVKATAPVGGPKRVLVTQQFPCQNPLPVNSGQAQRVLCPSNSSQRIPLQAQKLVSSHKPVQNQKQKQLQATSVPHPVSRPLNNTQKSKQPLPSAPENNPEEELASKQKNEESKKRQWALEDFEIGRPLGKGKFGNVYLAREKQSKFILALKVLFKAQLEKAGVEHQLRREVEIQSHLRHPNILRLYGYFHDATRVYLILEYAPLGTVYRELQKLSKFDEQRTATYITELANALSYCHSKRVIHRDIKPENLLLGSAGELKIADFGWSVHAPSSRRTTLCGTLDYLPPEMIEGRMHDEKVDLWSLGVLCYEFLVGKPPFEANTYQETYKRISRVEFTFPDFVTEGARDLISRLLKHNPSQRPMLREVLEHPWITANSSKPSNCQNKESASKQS
Protocol: as §1, §2, §3, §4

[6] = tested on: AurB or AurC; assay: Probe-based (AX9989) kinase profiling in Jurkat lysate: AurB or AurC
Protocol: as §1, §2, §3, §4

[7] = tested on: ABL or ARG; assay: Probe-based (AX9989) kinase profiling in Jurkat lysate: ABL or ARG
Protocol: as §1, §2, §3, §4

[8] = molecular target: T5, ACK (Homo sapiens, UniProt Q07912); assay: Probe-based (AX9989) kinase profiling in Jurkat lysate: ACK; conditions: for inhibition at 1 µM: screening concentration 1.0 μM
T5 construct: screened for activity against several kinases in Jurkat cells; endogenous in cells; host or cells: Jurkat cell lysate
T5 sequence (Q07912 whole entry): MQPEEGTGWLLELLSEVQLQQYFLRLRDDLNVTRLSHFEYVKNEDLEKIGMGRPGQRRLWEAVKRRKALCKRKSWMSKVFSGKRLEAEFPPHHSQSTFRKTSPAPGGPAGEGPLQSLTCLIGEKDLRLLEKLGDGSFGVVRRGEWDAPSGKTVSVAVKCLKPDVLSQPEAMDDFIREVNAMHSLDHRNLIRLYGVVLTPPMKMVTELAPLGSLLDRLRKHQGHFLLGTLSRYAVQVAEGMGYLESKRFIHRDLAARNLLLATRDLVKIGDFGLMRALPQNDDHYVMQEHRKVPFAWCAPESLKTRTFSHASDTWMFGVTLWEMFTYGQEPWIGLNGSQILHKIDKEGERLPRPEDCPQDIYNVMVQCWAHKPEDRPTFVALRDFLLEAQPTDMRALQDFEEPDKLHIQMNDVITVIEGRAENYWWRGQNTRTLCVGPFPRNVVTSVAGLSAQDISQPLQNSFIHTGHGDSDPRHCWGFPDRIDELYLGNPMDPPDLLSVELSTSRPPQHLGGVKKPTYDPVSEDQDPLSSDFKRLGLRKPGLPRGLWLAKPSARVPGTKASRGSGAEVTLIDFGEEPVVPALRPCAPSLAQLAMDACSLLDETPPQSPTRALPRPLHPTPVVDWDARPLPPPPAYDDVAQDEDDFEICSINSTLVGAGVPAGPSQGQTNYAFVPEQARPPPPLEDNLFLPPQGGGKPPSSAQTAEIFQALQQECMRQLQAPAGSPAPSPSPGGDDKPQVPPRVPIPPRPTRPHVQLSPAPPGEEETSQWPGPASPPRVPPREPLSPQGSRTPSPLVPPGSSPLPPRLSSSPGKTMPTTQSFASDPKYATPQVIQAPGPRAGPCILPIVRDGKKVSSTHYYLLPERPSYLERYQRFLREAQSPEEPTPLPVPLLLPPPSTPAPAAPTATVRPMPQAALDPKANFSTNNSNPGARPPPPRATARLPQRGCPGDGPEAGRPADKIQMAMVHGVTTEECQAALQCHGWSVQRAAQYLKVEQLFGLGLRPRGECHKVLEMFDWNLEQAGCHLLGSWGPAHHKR
Protocol: as §1, §2, §3, §4

[9] = calculated from percent inhibition of AX9989 labeling and the screening concentration
[10] = read-out: Kinase inhibition % at indicated screening concentration: ERK5
[11] = read-out: Kinase inhibition % at indicated screening concentration: JAK1
[12] = read-out: Kinase inhibition % at indicated screening concentration: TAO2
[13] = read-out: Kinase inhibition % at indicated screening concentration: AurA
[14] = read-out: Kinase inhibition % at indicated screening concentration: ACK

T1 sequence (Q13164 whole entry): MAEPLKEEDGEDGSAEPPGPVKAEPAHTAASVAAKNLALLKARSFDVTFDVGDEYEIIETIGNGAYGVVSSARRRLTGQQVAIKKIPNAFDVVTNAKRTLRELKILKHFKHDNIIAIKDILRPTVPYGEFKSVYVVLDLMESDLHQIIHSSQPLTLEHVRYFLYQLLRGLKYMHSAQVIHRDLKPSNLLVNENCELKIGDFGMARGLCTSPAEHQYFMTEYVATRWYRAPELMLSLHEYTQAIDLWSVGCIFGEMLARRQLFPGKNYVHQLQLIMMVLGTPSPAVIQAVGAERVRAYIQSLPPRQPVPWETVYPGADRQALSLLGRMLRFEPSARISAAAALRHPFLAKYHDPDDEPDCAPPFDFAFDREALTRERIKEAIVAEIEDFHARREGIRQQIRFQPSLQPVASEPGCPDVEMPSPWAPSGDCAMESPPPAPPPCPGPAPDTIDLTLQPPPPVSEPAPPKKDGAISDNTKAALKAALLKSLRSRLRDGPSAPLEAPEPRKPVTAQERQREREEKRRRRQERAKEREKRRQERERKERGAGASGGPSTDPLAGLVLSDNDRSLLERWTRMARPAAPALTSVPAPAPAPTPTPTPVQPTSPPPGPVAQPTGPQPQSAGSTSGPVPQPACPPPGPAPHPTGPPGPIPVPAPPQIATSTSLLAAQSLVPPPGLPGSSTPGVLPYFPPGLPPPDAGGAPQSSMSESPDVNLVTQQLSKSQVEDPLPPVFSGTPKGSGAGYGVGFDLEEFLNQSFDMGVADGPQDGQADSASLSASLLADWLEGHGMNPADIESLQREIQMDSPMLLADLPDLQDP

Structure (SMILES) | IC50 [1, 9] | inhibition at 1 µM [1, 10] | inhibition at 1 µM [2, 11] | Kinase inhibition % at indicated screening concentration: AMPKa1 or AMPKa2 ([3]; screening concentration 1.0 μM) | inhibition at 1 µM [4, 12] | inhibition at 1 µM [5, 13] | Kinase inhibition % at indicated screening concentration: AurB or AurC ([6]; screening concentration 1.0 μM) | Kinase inhibition % at indicated screening concentration: ABL or ARG ([7]; screening concentration 1.0 μM) | inhibition at 1 µM [8, 14] | also measured
Cc1nn(C)cc1Nc1cc2c(cn1)N(C)C(=O)c1ccccc1N2C [Compound 22] | 101 to 500 nM | 75 to 90% | ≤ 35% | E (E is ≦35%) | ≤ 35% | ≤ 35% | E (E is ≦35%) | E (E is ≦35%) | ≤ 35% | –
CCOc1cc(C(=O)N2CCOCC2)ccc1Nc1cc2c(cn1)N(C)C(=O)c1ccccc1[S+]2[O-] (stereo not drawn) [Compound T83, 3-((2-ethoxy-4-(morpholine-4-carbonyl)phenyl)amino)-11-methylbenzo[f]pyrido[4,3-b][1,4]thiazepin-10(11H)-one 5-oxide] | – | – | – | – | – | – | – | – | – | IC50 ([1]; calculated from percent inhibition and screening concentration, AX9989 probe): > 500 nM; inhibition at 10 µM ([1]; screening concentration 10 μM, read-out: ERK5 Inhibition % at indicated screening concentration): 75 to 90%; inhibition at 10 µM ([2]; screening concentration 10 μM, read-out: JAK1 Inhibition % at indicated screening concentration): ≤ 35%; AMPKa1 or AMPKa2 Inhibition % at indicated screening concentration ([3]; screening concentration 10 μM): E (E is ≦35%); inhibition at 10 µM ([4]; screening concentration 10 μM, read-out: TAO2 Inhibition % at indicated screening concentration): ≤ 35%; inhibition at 10 µM ([5]; screening concentration 10 μM, read-out: AurA Inhibition % at indicated screening concentration): ≤ 35%; AurB or AurC Inhibition % at indicated screening concentration ([6]; screening concentration 10 μM): E (E is ≦35%); ABL or ARG Inhibition % at indicated screening concentration ([7]; screening concentration 10 μM): E (E is ≦35%); inhibition at 10 µM ([8]; screening concentration 10 μM, read-out: ACK Inhibition % at indicated screening concentration): ≤ 35%
Cc1cc(O)ccc1Nc1cc2c(cn1)N(C)C(=O)c1ccccc1N2C [Compound 38] | 101 to 500 nM | 50 to 75% | ≤ 35% | E (E is ≦35%) | ≤ 35% | ≤ 35% | E (E is ≦35%) | E (E is ≦35%) | ≤ 35% | –
COc1ccccc1Nc1cc2c(cn1)N(C)C(=O)c1ccccc1N2C [Compound 19] | > 500 nM | 50 to 75% | ≤ 35% | E (E is ≦35%) | ≤ 35% | ≤ 35% | E (E is ≦35%) | E (E is ≦35%) | ≤ 35% | –
CN(C)CCn1cc(Nc2cc3c(cn2)N(C)C(=O)c2ccccc2N3C)cn1 [Compound 77] | 101 to 500 nM | 75 to 90% | ≤ 35% | E (E is ≦35%) | 35 to 50% | 50 to 75% | B (B is >75% to ≦90%) | E (E is ≦35%) | ≤ 35% | –
Cc1ccccc1Nc1cc2c(cn1)N(C)C(=O)c1ccccc1N2C [Compound 58] | > 500 nM | 50 to 75% | ≤ 35% | E (E is ≦35%) | ≤ 35% | ≤ 35% | E (E is ≦35%) | E (E is ≦35%) | ≤ 35% | –
CCOc1ccccc1Nc1cc2c(cn1)N(C)C(=O)c1ccccc1N2C [Compound 13] | > 500 nM | 50 to 75% | ≤ 35% | E (E is ≦35%) | ≤ 35% | ≤ 35% | E (E is ≦35%) | E (E is ≦35%) | ≤ 35% | –
CCOc1cc(CO)ccc1Nc1cc2c(cn1)N(C)C(=O)c1ccccc1N2C [Compound 112] | 101 to 500 nM | – | – | – | – | – | – | – | – | inhibition at 0.1 µM ([1]; screening concentration 0.1 μM, read-out: Kinase inhibition % at indicated screening concentration: ERK5): 35 to 50%; inhibition at 0.1 µM ([2]; screening concentration 0.1 μM, read-out: Kinase inhibition % at indicated screening concentration: JAK1): ≤ 35%; Kinase inhibition % at indicated screening concentration: AMPKa1 or AMPKa2 ([3]; screening concentration 0.1 μM): E (E is ≦35%); inhibition at 0.1 µM ([4]; screening concentration 0.1 μM, read-out: Kinase inhibition % at indicated screening concentration: TAO2): ≤ 35%; inhibition at 0.1 µM ([5]; screening concentration 0.1 μM, read-out: Kinase inhibition % at indicated screening concentration: AurA): ≤ 35%; Kinase inhibition % at indicated screening concentration: AurB or AurC ([6]; screening concentration 0.1 μM): E (E is ≦35%); Kinase inhibition % at indicated screening concentration: ABL or ARG ([7]; screening concentration 0.1 μM): E (E is ≦35%); inhibition at 0.1 µM ([8]; screening concentration 0.1 μM, read-out: Kinase inhibition % at indicated screening concentration: ACK): ≤ 35%
CN1C(=O)c2ccccc2N(C)c2cc(Nc3ccccc3Cl)ncc21 [Compound 86] | > 500 nM | 50 to 75% | ≤ 35% | E (E is ≦35%) | ≤ 35% | ≤ 35% | E (E is ≦35%) | E (E is ≦35%) | ≤ 35% | –

Reference: patent publication US20170008888A1 (KYORIN PHARMACEUTICAL CO., LTD., priority 2014, published 2017)
